The target of assay [1] is T1, human AT-III (Homo sapiens, UniProt P01008). Description: Equilibrium fluorescence titration of AT-III with saccharide. It counts as binding. As for the experimental part:
Equilibrium Fluorescence Titration Experiments. Titrations of human AT-III with either AT-10 decasaccharide or heparin were completed at 25° C. using a Fluorolog 2 machine (Spex Instruments) (Meagher, J. L., Beechem, J. M., Olson, S. T. & Gettins, P. G. (1998) J Biol Chem 273, 23283-9 and Desai, U. R., Petitou, M., Bjork, I. & Olson, S. T. (1998) J Biol Chem 273, 7478-87). […] With the pH 7.4 buffer, sodium chloride was added to a final concentration of 100 mM.
Fluorescence emission spectra were collected from 300-400 nm with a 280 nm excitation wavelength and a 5 s integration time. Briefly, the titration experiments were conducted as follows—aliquots of either decasaccharide or heparin was added to a 1 μm solution of AT-III, the solution was allowed to come to equilibrium for one minute, and an emission spectrum collected. Addition of sequential saccharide aliquots and fluorescence signal was adjusted to account for protein dilution.

Assay [2] deals with factor Xa (FXa). Description: Anti-Xa assay (factor Xa generation inhibition; factor Xa from serum or purified). It counts as biochemical. On the procedure: (§1) Biological Measurements of Decasaccharide Activity. In vitro anticoagulant activity was determined as described previously (Hoppensteadt, D. A., Jeske, W. P., Walenga, J. M., Fu, K., Yang, L. H., Ing, T. S., Herbert, J. M. & Fareed, J. (1999) Thromb Res 96, 115-24 and Dietrich, C. P., Paiva, J. F., Castro, R. A., Chavante, S. F., Jeske, W., Fareed, J., Gorin, P. A., Mendes, A. & Nader, H. B. (1999) Biochim Biophys Acta 1428, 273-83), according to the United States Pharmacopoeia. Thrombin (FIIa) and factor Xa (FXa) generation inhibition assays were completed essentially as described. Briefly, either AT-10 decasaccharide, Enoxaparin LMWH or the synthetic AT-III binding pentasaccharide (Penta 1) used in this study was dissolved in sterile saline at the designated concentrations. To this sample was added an equal volume of fibrinogen deficient plasma diluted 1:8 in 100 mM Tris-HCl (pH 8.5). In a separate sample, the same concentration of heparin oligosaccharide and actin was added in a 1:1 ratio to either Spectrozyme TH or FXa. In this manner, the intrinsic IIa and Xa generation was measured. In addition, to account for inhibition of thrombin and extrinsic generation of FXa, thromboplastin C was diluted 1:6 with either Spectrozyme TH or FXa. For all samples, the optical density was measured at 405 nm and results are expressed as a % inhibition compared to a unsupplemented saline control. […]

The target of assay [3] is T2, Thrombin (FIIa) (Homo sapiens, UniProt P00734).
T2 construct: purchased Ortho Diagnostic Systems, Inc. (Raritan, N.J.) Fibrindex
The experiment in a line: Anti-IIa assay (thrombin generation inhibition). The format is biochemical. On the procedure:
as §1

In assay [4] the target is T3, heparinase I (Pedobacter heparinus, UniProt Q05819).
T3 construct: made in house
T3 sequence (Q05819 22-384): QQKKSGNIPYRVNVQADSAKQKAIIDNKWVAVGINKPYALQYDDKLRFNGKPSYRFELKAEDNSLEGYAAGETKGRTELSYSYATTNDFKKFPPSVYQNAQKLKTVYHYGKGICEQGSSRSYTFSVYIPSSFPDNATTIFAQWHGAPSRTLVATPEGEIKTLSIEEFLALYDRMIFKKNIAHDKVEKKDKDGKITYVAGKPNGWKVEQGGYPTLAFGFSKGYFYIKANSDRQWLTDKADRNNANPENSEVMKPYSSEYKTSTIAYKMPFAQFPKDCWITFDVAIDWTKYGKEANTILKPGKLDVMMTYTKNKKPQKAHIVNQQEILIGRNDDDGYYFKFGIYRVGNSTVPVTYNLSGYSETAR
Description: Exhaustive heparinase I digestion, products by MALDI-MS. It counts as biochemical, Flavobacterium heparinum. On the procedure: (§2) Digests. Heparinase I digests were completed as described (Venkataraman, G., Shriver, Z., Raman, R. & Sasisekharan, R. (1999) Science 286, 537-42 and Rhomberg, A. J., Ernst, S., Sasisekharan, R. & Biemann, K. (1998) Proc Natl Acad Sci USA 95, 4176-81). Heparinase II or III reactions were completed in essentially the same way at room temperature in 10 μM ovalbumin, 1 μM dextran sulfate, and 10 mM ethylenediamine, pH 7.0. Short digestions were completed with 50 nM enzyme for 10 minutes while exhaustive digests were completed with 200 nM enzyme overnight. Mass spectra were collected using parameters as outlined above (see also Shriver, Z., Raman, R., Venkataraman, G., Drummond, K., Turnbull, J., Toida, T., Linhardt, R., Biemann, K. & Sasisekharan, R. (2000) Proc Natl Acad Sci USA, 2000 Sep. 12; 97(19):10359-64) and calibrated externally by using signals for protonated (RG)19R and its complex with a nitrous acid-derived hexasaccharide of the sequence I2SHNS,6S I2SHNS,6S I2SMan6S
(§3) Enzymatic Action of the Heparinases Towards the AT-III Binding Site: Previously, we investigated the substrate specificity of heparinases I and II towards AT-10 (Rhomberg, A. J., Shriver, Z., Biemann, K. & Sasisekharan, R. (1998) Proc Natl Acad Sci USA 95, 12232-7 and Ernst, S., Rhomberg, A. J., Biemann, K. & Sasisekharan, R. (1998) Proc Natl Acad Sci USA 95, 4182-7). These studies, however, were carried out assuming a published structure (Toida, T., Hileman, R. E., Smith, A. E., Vlahova, P. I. & Linhardt, R. J. (1996) J Biol Chem 271, 32040-7). In light of the newly determined structure of AT-10 described herein (see also Shriver, Z., Raman, R., Venkataraman, G., Drummond, K., Turnbull, J., Toida, T., Linhardt, R., Biemann, K. & Sasisekharan, R. (2000) Proc Natl Acad Sci USA, 2000 Sep. 12; 97(19):10359-64), we reexamined the enzymatic action of heparinases I, II, and III towards oligosaccharides containing a 3-O sulfate that is critical for high affinity AT-III binding. For these studies, we used three oligosaccharides, two pentasaccharides (Penta 1 and Penta 2, FIG. 5) and a hexasaccharide (Hexa 1, FIG. 5). […]
(§4) Compositional Analysis: UFH was subjected to exhaustive depolymerization with an enzyme cocktail made up of Heparinase I, Heparinase II, and Heparinase III. […] The samples were analyzed by CE in reverse polarity with a running buffer of 50 mM tris/phosphate, 10 μM dextran sulfate, pH 2.5. […] Each sample was digested in duplicate and the experiment was repeated twice for each sample, resulting in four readings per sample. All of the 8 resulting peaks were collected, and the purity of the collected samples was checked by re-injecting into CE, and their mass was measured by offline MALDI Mass Spectrometry. […]

For assay [5], the target named is T4, heparinase II (Pedobacter heparinus, UniProt C6XZB6).
T4 construct: made in house
T4 sequence (C6XZB6 26-772): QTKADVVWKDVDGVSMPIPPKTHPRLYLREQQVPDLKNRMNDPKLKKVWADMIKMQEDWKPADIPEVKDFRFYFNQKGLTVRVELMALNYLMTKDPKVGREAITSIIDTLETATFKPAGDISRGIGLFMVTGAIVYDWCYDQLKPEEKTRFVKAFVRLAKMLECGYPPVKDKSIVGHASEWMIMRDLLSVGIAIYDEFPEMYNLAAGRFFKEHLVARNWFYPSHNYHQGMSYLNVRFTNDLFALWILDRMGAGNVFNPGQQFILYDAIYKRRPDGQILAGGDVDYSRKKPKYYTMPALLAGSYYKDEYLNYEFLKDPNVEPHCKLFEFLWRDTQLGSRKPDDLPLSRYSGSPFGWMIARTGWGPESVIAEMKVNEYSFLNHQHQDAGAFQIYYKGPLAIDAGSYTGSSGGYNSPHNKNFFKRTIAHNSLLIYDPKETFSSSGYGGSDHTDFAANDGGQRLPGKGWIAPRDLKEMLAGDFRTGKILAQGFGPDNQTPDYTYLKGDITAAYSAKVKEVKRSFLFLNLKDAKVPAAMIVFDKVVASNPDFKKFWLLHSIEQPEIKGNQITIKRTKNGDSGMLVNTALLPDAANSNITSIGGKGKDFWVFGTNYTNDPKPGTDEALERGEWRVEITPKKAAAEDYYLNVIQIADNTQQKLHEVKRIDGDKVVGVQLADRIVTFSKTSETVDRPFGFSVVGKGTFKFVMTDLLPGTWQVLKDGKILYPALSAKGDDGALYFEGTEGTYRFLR
Description: Exhaustive heparinase II digestion, products by MALDI-MS. It counts as biochemical, Flavobacterium heparinum. As for the experimental part:
as §2, §3, §4

Assay [6] has as its target T5, heparinase III (Pedobacter heparinus, UniProt Q59289).
T5 construct: made in house
The experiment in a line: Exhaustive heparinase III digestion, products by MALDI-MS. It counts as biochemical, Flavobacterium heparinum. On the procedure: as §2, §3, §4

Assay [7] deals with whole blood. Description: HepTest. On the procedure:
Whole blood data were also used to determine the anticoagulant activity of AT-10. The assays, activated partial thromboplastin time (APTT) and prothrombin time (PT) was conducted in a manner similar to what has been previously reported (Dietrich, C. P., Paiva, J. F., Castro, R. A., Chavante, S. F., Jeske, W., Fareed, J., Gorin, P. A., Mendes, A. & Nader, H. B. (1999) Biochim Biophys Acta 1428, 273-83). APTT reagent was obtained from Organon Teknika (Durham, N.C.) and HepTest Reagent was obtained from Haemachem (St. Louis, Mo.).

Assay [8] concerns the target T1, human AT-III. The conditions noted are these: Desai et al. 1998; cited from earlier work.

Each structure is given as a SMILES string. Like-named read-outs stand apart in the source and are kept apart here.

T5 sequence (Q59289 25-659): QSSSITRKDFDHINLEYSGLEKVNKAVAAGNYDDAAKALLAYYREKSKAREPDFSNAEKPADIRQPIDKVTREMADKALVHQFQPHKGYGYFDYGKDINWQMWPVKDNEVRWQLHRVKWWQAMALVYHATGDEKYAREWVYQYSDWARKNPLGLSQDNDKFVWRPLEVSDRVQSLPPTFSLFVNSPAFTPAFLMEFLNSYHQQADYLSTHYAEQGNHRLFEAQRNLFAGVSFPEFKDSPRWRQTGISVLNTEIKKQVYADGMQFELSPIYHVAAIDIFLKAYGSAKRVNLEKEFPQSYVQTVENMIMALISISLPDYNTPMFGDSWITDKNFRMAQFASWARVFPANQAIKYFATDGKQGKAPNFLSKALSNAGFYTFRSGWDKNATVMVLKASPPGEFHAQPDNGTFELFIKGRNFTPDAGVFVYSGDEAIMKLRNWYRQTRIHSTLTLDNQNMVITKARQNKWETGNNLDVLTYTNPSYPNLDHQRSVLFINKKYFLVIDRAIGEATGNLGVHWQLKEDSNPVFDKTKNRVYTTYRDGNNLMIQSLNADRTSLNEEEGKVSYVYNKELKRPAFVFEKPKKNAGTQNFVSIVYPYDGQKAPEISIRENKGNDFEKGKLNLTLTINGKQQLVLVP

For orientation: IC50 means the concentration that gives 50% inhibition. Regarding `CC(=O)NC1C(OC2C(C(=O)O)OC(OC3C(COS(=O)(=O)O)OC(O)C(NS(=O)(=O)O)C3OS(=O)(=O)O)C(O)C2O)OC(COS(=O)(=O)O)C(OC2OC(C(=O)O)C(OC3OC(COS(=O)(=O)O)C(OC4OC(C(=O)O)C(OC5OC(COS(=O)(=O)O)C(OC6OC(C(=O)O)C(OC7OC(COS(=O)(=O)O)C(OC8OC(C(=O)O)=CC(O)C8OS(=O)(=O)O)C(O)C7NS(=O)(=O)O)C(O)C6OS(=O)(=O)O)C(O)C5NS(=O)(=O)O)C(O)C4OS(=O)(=O)O)C(O)C3NS(=O)(=O)O)C(O)C2O)C1O` [AT-10, ΔU2SHNS,6SI2SHNS,6SI2SHNS,6SIHNAc,6SGHNS,3S,6S], the Kd was 800 nM in assay [1] (pH 6.0 I=0.025, read-out: KD for AT-III) and 800 nM in assay [1] (pH 6.2, read-out: apparent KD for AT-III). Also, the “affinity for AT-III (in words)” value in assay [1] (pH 7.4, I=0.15) is “very little affinity”. In assay [2], the IC50 amounted to 280 nM. Further, in assay [3], the “anti-IIa activity (in words)” value is given as “neither the decasaccharide nor the pentasaccharide have significant anti-IIa activity”.

For the compound `CC(=O)NC1C(OC2C(C(=O)O)OC(OC3C(COS(=O)(=O)O)OC(O)C(NS(=O)(=O)O)C3OS(=O)(=O)O)C(O)C2O)OC(COS(=O)(=O)O)C(OC2OC(C(=O)O)C(OC3OC(COS(=O)(=O)O)C(OC4OC(C(=O)O)=CC(O)C4OS(=O)(=O)O)C(O)C3NS(=O)(=O)O)C(O)C2O)C1O` [Hexa 1, ΔU2SHNS,6SIHNAc,6S, GHNS,3S,6S], the “cleavage by heparinase I” value in assay [4] was “not cleaved”. Also, in assay [5], the “cleavage by heparinase II” value is on record as “susceptible”. Besides, the “cleavage by heparinase III” value in assay [6] is “susceptible”.

In assay [2], `CO[C@H]1O[C@H](COS(=O)(=O)O)[C@@H](O[C@@H]2O[C@@H](C(=O)O)[C@@H](O[C@H]3O[C@H](COS(=O)(=O)O)[C@@H](O[C@@H]4O[C@H](C(=O)O)[C@@H](O[C@H]5O[C@H](COS(=O)(=O)O)[C@@H](O)[C@H](O)[C@H]5NS(=O)(=O)O)[C@H](O)[C@H]4O)[C@H](OS(=O)(=O)O)[C@H]3NS(=O)(=O)O)[C@H](O)[C@H]2OS(=O)(=O)O)[C@H](O)[C@H]1NS(=O)(=O)O` [Penta 1, HNS,6SGHNS,3S,6SI2SHNS,6S,OMe] yielded an IC50 of 39 nM. In addition, in assay [3], the “anti-IIa activity (in words)” value is reported as “neither the decasaccharide nor the pentasaccharide have significant anti-IIa activity”. For the same compound, the “HepTest activity (in words)” value in assay [7] was “significantly higher activity than the AT-10 decasaccharide”. For the same compound, the “cleavage by heparinase I” value in assay [4] is recorded as “cleave”. Moreover, in assay [5], the “cleavage by heparinase II” value is given as “cleave”. The “cleavage by heparinase III” value in assay [6] is on record as “not cleavable”. Also, in assay [8], the “affinity for AT-III, previous studies (in words)” value was “affinity similar to that of full length heparin”.

Consider `CO[C@H]1O[C@H](COS(=O)(=O)O)[C@@H](O[C@@H]2O[C@@H](C(=O)O)[C@@H](O[C@H]3O[C@H](COS(=O)(=O)O)[C@@H](O[C@@H]4O[C@H](C(=O)O)[C@@H](O[C@H]5O[C@H](COS(=O)(=O)O)[C@@H](O)[C@H](O)[C@H]5NS(=O)(=O)O)[C@H](O)[C@H]4O)[C@H](O)[C@H]3NS(=O)(=O)O)[C@H](O)[C@H]2OS(=O)(=O)O)[C@H](O)[C@H]1NS(=O)(=O)O` [Penta 2, HNS,6SGHNS,6SI2SHNS,6S,OMe], for which the “cleavage by heparinase I” value in assay [4] is given as “efficiently cleave”. Besides, the “cleavage by heparinase II” value in assay [5] is listed as “efficiently cleave”. In assay [6], the “cleavage by heparinase III” value is given as “efficiently cleave”.

For the compound `CC(=O)N[C@H]1[C@@H](O[C@H]2[C@H](O)[C@@H](O)[C@H](O[C@H]3[C@H](OS(=O)(=O)O)[C@@H](NS(=O)(=O)O)C(O)O[C@@H]3COS(=O)(=O)O)O[C@@H]2C(=O)O)O[C@H](COS(=O)(=O)O)[C@@H](O[C@@H]2OC(C(=O)O)=C[C@H](O)[C@H]2O)[C@@H]1O` (stereo partly drawn) [ΔUHNAC,6SGHNS,3S,6S], the “cleavage by heparinase I” value in assay [4] is recorded as “resistant to further degradation”. In addition, in assay [5], the “cleavage by heparinase II” value is “resistant to further degradation”. Further, in assay [6], the “cleavage by heparinase III” value is “resistant to further degradation”.

The values are drawn from patent publication US8173384B2, “Methods for analyzing or processing a heparin sample” (Massachusetts Institute of Technology, priority 2000, dated 2012).
